Entries after “also recorded” stand apart in the source; their conditions may differ. Like-named read-outs stand apart in the source and are kept apart here. Where no end group is shown, it is not given here.
Tests used:
[1] = tested on: T2 cells; test: Chromium release assay: reconstitution of epitopes on peptide-pulsed T2 cells for HLA-A2.1-restricted melanoma-specific CTL; conditions: for reconstitution of recognition by CTL lines from 3 additional patients: 946 at 0.1–1 nM, other peptides at equal or higher concentrations, FIG. 12; for effect on epitope reconstitution: VMM5 and DM204-13 CTL, concentrations up to 10 nM; for % specific release (of Cr-51), no CTL: T2 + peptide 1 μM; for number of CTL lines/patients recognizing the peptide: HLA-A2.1 restricted melanoma specific CTL lines
Method: Cell-mediated killing was determined in vitro using a 4-h chromium release assay. 51Cr-labeled target cells were plated at 2×10^3 cells/well in triplicate on 96-well V-bottom plates (Costar, Cambridge, Mass.) with varying numbers of effector cells in a final volume of 250 microl. Wells containing either culture medium and target cells only or 1 M HCl and target cells served as background 51Cr release controls and total release controls, respectively. The plates were centrifuged at 100×g for 3 min and incubated at 37° C. in 5% CO2 for 4 h. The plates were again centrifuged, and 0.20 ml of medium from each well was removed for counting in a gamma counter. The cytotoxic index was calculated as: Cpm(experimental)−cpm(background)×100% Cpm(total release)−cpm(background) Lytic units were calculated for several of the cytotoxicity assays, using a software package prepared by the National. Cancer Institute (Bethesda, Md.), which solves for the equation y=A×[1−exp(−kx)], where x is the E:T ratio, y is the cytotoxic index, A is the curve maximum, and k is a constant used to calculate the slope of the best fit line. For the purposes of this study, a lytic unit was defined as the number of effector cells needed to mediate […] lysis of target cells. The number of lytic units was calculated per 10^5 effector cells (LU30 per 10^5 cells).
Effector cells were added in 100 microl assay medium to give an E:T ratio of 10:1, and were incubated at 37° C. The remainder of the assay is performed as in standard chromium release assays described above. Wells containing peptide and target cells but no CTL were used as controls to rule out toxicity of the peptides themselves.
HLA-A2.1 molecules were immunoaffinity purified from detergent lysates of the human melanoma cell line DM6. The associated peptides were released by acid extraction, separated from HLA-A2.1 and antibody by filtration, and fractionated by multiple stages of HPLC. […] L. Slingluff Jr., et al, J. Immunol. […] In FIG. 8B Fractions 2 and 3 from the separation shown in panel A were pooled and rechromatographed with a 55 minute gradient of 0 to 30% acetonitrile/0.1% heptafluorobutyric acid (HFBA) in 0.1% HFBA, collecting one-minute fractions. For both panels, peptide: fractions were incubated for 2–3h with 2×10^3 51Cr-labelled T2 cells in […] assay media per well in 96-well plates.
CTL lines VMM5 and VMM6 were generated by stimulation with autologous tumor. VMM5 CTL were maintained on allogeneic. A2.1+melanoma DM6 after specificity was obtained, C. L. Slingluff Jr. et al., J. Immunol. […] DM169-13 and DM204-13 CTL were generated by stimulation with allogeneic A2.1+melanoma DM13, N. J. Crowley et al., J. Immunol. […] LD1 CTL were stimulated on a rotating schedule of stimulating allogeneic A2.1+melanomas DM6, DM13, and DM93. DM93 is an HLA-A2.1+melanoma used as a positive control. […] T2 cells were preincubated with the peptides whose (M+H)^+ values are indicated in the legend, FIG. 12. […] Asterisks (*) mark peptides not evaluated.

[2] = tested on: VMM12-EBV; test: Screen of Pmel-17/gp100 peptides for sensitizing VMM12-EBV cells for lysis by VMM18 CTL; assay type: cell-based, human; conditions: Table 102 (not given)
[3] = tested on: T2-A3 cells; assay type: cell-based, human
[4] = tested on: VMM12 CTL; test: Recognition of Pmel-17 peptide by VMM12 CTL; assay type: cell-based, human
Description: However, VMM12 CTL do recognize and lyse VMM18 melanoma cells. Because the only Class I MHC molecule shared by VMM12 and VMM18 is HLA-A3, it is evident that at least one additional shared CTL epitope is expressed by both of these tumors.

[5] = tested on: tyrosinase specific CTL clone IVSB; test: Sensitization of target cells for lysis by tyrosinase specific CTL clone IVSB; assay type: cell-based, human
Description: T. Wolfei, et. al., Eur. J. Immuno. 24, 759 (1994). […] Even when target cells were pretreated with the monoclonal antibody MA2.1 in order to facilitate exogenous peptide binding to HLA-A2.1. T. Wolfei, et al., Eur. J. Immunol.

[6] = tested on: C1R-A1 cells; test: Chromium release assay: peptide-pulsed C1R-A1 cells, VMM15 CTL; assay type: cell-based, human; conditions: for reconstitution of an epitope for VMM15 CTL: C1R-A1 pulsed with 10 uM, 1 uM and 0.1 uM peptide, FIG. 22
[7] = tested on: C1R-A1 cells; test: Chromium release assay: peptide-pulsed C1R-A1 cells, VMM12 CTL; assay type: cell-based, human; conditions: C1R-A1 pulsed with 1 to 0.03 uM peptide; FIG. 23
[8] = T2-A3, VMM18 CTL, FIG. 18, read-out: half maximal lysis
[9] = CTL clone IVSB, read-out: half maximal lysis

For “Ala-Xaa-Tyr-Asp-Ala-Thr-Tyr-Glu-Thr, wherein Xaa=Leu or Ile [compound 1046]”, the “reconstitution of recognition by CTL lines from 3 additional patients” value (“reconstitution of recognition” for short) [1] was “neither 864 nor 1046 had any detectable activity” and the “effect on epitope reconstitution” value [1] was “no effect”.

`CC[C@H](C)[C@H](NC(=O)[C@@H](N)Cc1ccc(O)cc1)C(=O)N[C@@H](CCC(=O)O)C(=O)N1CCC[C@H]1C(=O)NCC(=O)N1CCC[C@H]1C(=O)N[C@H](C(=O)N[C@H](C(=O)N[C@@H](C)C(=O)O)[C@@H](C)O)C(C)C` [946I] was tested, and the “% specific release (of Cr-51), no CTL” value [1] was 0.1%.

`CC(C)C[C@H](NC(=O)[C@@H](N)Cc1ccc(O)cc1)C(=O)N[C@@H](CCC(=O)O)C(=O)N1CCC[C@H]1C(=O)NCC(=O)N1CCC[C@H]1C(=O)N[C@H](C(=O)N[C@H](C(=O)N[C@@H](C)C(=O)O)[C@@H](C)O)C(C)C` [946L] was tested, and the “% specific release (of Cr-51), no CTL” value [1] was -1.4%.

For ALLAVGATK [SEQ ID NO:98], the “sensitization of VMM12-EBV for lysis by VMM18 CTL” value [2] was “sensitized VMM12-EBV for lysis by VMM18 CTL”, the EC50 [3, 8] was 1 to 10 nM and the EC50 ([3]; read-out: half-maximal lysis of T2 cells expressing HLA-A3) was about 10 nM. For the same compound, the “recognition by CTL from patient VMM12” value [4] was “not recognized”.

For SMAPGNTSV [compound 864], the “reconstitution of recognition” value [1] was “neither 864 nor 1046 had any detectable activity” and the “effect on epitope reconstitution” value [1] was “no effect”.

For YMDGTMSQV [SEQ ID NO:9], the EC50 [5, 9] was 100 nM.

For “DAEKCDICTDEY (cysteine pairing not given here) [SEQ ID NO:101]”, the “reconstitution of an epitope for VMM15 CTL” value [6] was “also recognized; also recorded: reconstituted” and the “reconstitution of an epitope for VMM12 CTL” value [7] was “reconstituted an epitope for these VMM12 CTL, although weakly”.

With LLAVGATK [SEQ ID NO:4] the “sensitization of VMM12-EBV for lysis by VMM18 CTL” value [2] was “sensitized VMM12-EBV for lysis by VMM18 CTL” and the EC50 [3, 8] was over 1000 nM.

With KCDICTDEY [SEQ ID NO:93] the half-maximal lysis [6] was “approximately 1 ug/ml”, the “reconstitution of an epitope for VMM15 CTL” value [6] was “most effective, even at the lowest concentration tested; also recorded: reconstituted” and the “reconstitution of an epitope for VMM15 CTL” value ([6]; listed as KCDICTDEY) was “reconstitutes an epitope for VMM15 CTL”. For the same compound, the EC50 ([6]; read-out: half-maximal lysis) was about 1000 nM.

In the case of “Tyr met Asn Gly Thr Met Ser Gln Val [SEQ ID NO:94]”, the EC50 [5, 9] is reported as 10000 nM, the EC50 ([5]; target cells pretreated with monoclonal antibody MA2.1, read-out: concentration required to give half-maximal target cell lysis) is reported as over 1000 nM and the “number of CTL lines/patients recognizing the peptide” value [1] is reported as “None of 4”.

For “Tyr Xaa Glu Pro Gly Pro Val Thr Ala (YXEPGPVTA; not fully specified; X: randomised place (mixture)) [compound 946]”, the “reconstitution of recognition” value [1] was “reconstituted recognition by each of these 3 lines”, the “number of CTL lines/patients recognizing the peptide” value [1] was 5 out of 5 and the EC50 ([1]; read-out: half-maximal lysis, dose response curves, two of the 3 additional CTL lines) was 0.001 to 0.01 nM. It also gave an EC50 ([1]; read-out: half-maximal lysis, other assays) of 0.001 nM.

With “EKCDICTDEY (cysteine pairing not given here) [SEQ ID NO:102]” the “reconstitution of an epitope for VMM15 CTL” value [6] was “also recognized; also recorded: reconstituted”.

Reference: US7019112B1, “Peptides recognized by melanoma-specific A1-, A2- and A3-restricted cytoxic lymphocytes, and uses therefor” (University of Virginia Patent Foundation, priority 1996, dated 2006)
